# In patent US8178668B2, “2-aminopyridine kinase inhibitors” (OSI Pharmaceuticals, LLC, priority 2008, dated 2012):
# Structures can show the parent of a compound that is named as a salt.
# What was measured:
# [1] = target: RON (human) (Homo sapiens, UniProt Q04912); assay: RON kinase AlphaScreen assay (Km of ATP); assay type: biochemical; settings: ATP at Km; at least duplicate experiments
# Summary of the method: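 Human RON phosphorylated biotinylated poly(Glu,Tyr) (200 ng/μL) at Km ATP in 50 mM HEPES pH 7.4, 12.5 mM MgCl2, 1% glycerol, 0.334 mM vanadate, 1% DMSO. Reaction ran 30 min at RT after enzyme addition. Product was detected by AlphaScreen with PT66 beads after 1 h.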
# [2] = target: MET (human) (Homo sapiens, UniProt P08581); assay: MET kinase AlphaScreen assay (Km of ATP); assay type: biochemical; settings: ATP at Km; at least duplicate experiments
# Summary of the method: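 Biotinylated poly(Glu,Tyr) (200 ng/μL) phosphorylated by MET with ATP at an enzyme-optimized level, in 50 mM HEPES pH 7.4 with Mg2+/Mn2+ and vanadate, 1% DMSO. Reaction runs 60 min at RT. PT66 AlphaScreen donor/acceptor beads are added and signal is read after 1 h.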
# Sequence of MET (human) (P08581 25-1390): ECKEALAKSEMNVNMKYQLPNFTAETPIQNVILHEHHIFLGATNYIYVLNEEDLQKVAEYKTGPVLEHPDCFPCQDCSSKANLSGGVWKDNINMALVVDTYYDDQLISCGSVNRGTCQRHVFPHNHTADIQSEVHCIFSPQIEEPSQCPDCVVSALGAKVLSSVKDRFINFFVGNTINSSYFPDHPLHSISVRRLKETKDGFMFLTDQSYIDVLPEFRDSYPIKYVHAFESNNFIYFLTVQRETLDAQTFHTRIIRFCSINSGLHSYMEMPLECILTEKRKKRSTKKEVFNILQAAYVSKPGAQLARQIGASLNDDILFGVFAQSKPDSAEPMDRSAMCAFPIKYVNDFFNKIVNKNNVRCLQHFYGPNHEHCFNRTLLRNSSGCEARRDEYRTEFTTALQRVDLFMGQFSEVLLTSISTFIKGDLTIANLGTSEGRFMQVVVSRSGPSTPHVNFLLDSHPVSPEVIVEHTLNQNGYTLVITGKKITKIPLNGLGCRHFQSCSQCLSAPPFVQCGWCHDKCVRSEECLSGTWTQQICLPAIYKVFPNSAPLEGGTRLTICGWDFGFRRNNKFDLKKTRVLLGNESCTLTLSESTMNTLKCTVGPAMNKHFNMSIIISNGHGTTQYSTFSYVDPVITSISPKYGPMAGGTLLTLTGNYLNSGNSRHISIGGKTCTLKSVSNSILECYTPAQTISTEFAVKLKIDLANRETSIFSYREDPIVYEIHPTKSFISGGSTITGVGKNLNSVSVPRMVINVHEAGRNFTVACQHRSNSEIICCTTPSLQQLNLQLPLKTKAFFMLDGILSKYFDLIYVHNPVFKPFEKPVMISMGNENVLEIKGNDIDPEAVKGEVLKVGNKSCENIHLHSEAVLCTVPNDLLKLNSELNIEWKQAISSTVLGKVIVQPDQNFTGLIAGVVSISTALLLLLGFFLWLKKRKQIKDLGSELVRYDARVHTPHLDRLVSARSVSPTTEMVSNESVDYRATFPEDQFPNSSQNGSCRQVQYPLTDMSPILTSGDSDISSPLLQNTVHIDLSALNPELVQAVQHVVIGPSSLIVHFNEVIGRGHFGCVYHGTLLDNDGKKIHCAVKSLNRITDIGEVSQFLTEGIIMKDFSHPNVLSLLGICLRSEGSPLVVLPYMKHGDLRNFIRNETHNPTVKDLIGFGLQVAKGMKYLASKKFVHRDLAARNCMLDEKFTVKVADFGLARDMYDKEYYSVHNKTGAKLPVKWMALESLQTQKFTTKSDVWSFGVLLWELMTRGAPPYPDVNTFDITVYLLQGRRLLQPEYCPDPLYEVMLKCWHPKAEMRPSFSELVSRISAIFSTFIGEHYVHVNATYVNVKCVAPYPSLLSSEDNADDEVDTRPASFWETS
# Sequence of RON (human) (Q04912 25-1400): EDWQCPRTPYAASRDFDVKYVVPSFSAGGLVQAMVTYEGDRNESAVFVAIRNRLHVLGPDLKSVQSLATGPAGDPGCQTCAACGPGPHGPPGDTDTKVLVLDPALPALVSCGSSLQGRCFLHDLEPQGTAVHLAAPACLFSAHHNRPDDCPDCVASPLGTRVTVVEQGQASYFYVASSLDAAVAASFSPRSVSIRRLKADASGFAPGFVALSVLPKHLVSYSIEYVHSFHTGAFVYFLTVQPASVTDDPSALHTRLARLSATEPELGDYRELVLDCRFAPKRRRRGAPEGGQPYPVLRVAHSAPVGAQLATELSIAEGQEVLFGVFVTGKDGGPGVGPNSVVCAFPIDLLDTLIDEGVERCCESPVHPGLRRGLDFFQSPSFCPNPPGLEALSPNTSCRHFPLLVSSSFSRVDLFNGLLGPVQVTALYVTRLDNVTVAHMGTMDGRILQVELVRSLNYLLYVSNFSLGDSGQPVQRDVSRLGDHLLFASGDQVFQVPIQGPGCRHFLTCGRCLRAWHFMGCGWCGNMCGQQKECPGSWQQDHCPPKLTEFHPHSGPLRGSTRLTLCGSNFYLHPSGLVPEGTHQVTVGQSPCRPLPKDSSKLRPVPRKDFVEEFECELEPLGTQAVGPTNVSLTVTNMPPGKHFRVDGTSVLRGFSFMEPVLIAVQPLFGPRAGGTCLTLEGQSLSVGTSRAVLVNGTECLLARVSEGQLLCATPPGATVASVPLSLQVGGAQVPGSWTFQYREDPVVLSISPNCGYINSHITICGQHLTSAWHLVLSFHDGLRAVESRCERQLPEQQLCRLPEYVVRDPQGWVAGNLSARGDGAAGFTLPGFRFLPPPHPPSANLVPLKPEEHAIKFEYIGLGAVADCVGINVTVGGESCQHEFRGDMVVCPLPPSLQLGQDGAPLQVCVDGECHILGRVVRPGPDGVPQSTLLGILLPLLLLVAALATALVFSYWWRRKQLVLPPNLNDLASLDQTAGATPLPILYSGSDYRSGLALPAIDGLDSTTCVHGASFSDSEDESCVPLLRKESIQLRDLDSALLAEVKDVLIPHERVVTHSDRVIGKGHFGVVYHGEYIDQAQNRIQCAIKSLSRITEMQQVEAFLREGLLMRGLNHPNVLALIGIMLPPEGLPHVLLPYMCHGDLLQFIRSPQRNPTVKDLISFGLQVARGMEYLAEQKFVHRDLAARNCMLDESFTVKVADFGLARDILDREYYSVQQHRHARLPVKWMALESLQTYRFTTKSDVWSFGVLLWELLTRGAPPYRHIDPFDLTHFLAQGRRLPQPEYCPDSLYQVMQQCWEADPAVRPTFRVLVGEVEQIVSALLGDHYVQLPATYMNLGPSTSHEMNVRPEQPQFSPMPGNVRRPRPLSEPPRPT
Compound,IC50 [1] [µM],IC50 [2] [µM]
"Nc1ncc(-c2ccc(O)nc2)cc1-c1cc2c(Cl)ccc(F)c2cn1 [Example 84, 6′-Amino-5′-(5-chloro-8-fluoroisoquinolin-3-yl)-3,3′-bipyridin-6-ol]",1 to 20,1 to 20
"Nc1ncc(-c2ccoc2)cc1-c1cc2c(Cl)ccc(F)c2cn1 [Example 85, 3-(5-Chloro-8-fluoroisoquinolin-3-yl)-5-furan-3-ylpyridin-2-amine]",> 20,1 to 20
"Nc1ncc(-c2ccco2)cc1-c1cc2c(Cl)ccc(F)c2cn1 [Example 86, 3-(5-Chloro-8-fluoroisoquinolin-3-yl)-5-furan-2-ylpyridin-2-amine]",> 20,1 to 20
"Nc1ncc(-c2cn[nH]c2)cc1-c1cc2c(Cl)ccc(F)c2cn1 [Example 87, 3-(5-Chloro-8-fluoroisoquinolin-3-yl)-5-(1H-pyrazol-4-yl)pyridin-2-amine]",1 to 20,1 to 20
"Nc1ncc(-c2ccc(NCCN3CCOCC3)nc2)cc1-c1cc2c(Cl)ccc(F)c2cn1 [Example 88, 3-(5-Chloro-8-fluoroisoquinolin-3-yl)-5-N6′-(2-morpholin-4-ylethyl)-3,3′-bipyridine-6,6′-diamine]",1 to 20,1 to 20
"Nc1ncc(-c2cc3ccccc3[nH]2)cc1-c1cc2c(Cl)ccc(F)c2cn1 [Example 89, 3-(5-Chloro-8-fluoroisoquinolin-3-yl)-5-(1H-indol-2-yl)pyridin-2-amine]",1 to 20,1 to 20
"COc1ccc(Cl)c2cc(-c3cc(-c4cccc(C(=O)O)c4)cnc3N)ncc12 [Example 91, 3-[6-Amino-5-(5-chloro-8-methoxyisoquinolin-3-yl)-pyridin-3-yl]benzoic acid]",> 20,> 20
"Nc1ncc(-c2cnn(C3CCNCC3)c2)cc1-c1cc2ccccc2o1 [Example 92, 3-Benzofuran-2-yl-5-(1-piperidin-4-yl-1H-pyrazol-4-yl)-pyridin-2-ylamine dihydrochloride]",1 to 20,0.1 to 1
"Cc1c(-c2cc(-c3cnn(C4CCNCC4)c3)cnc2N)oc2ccccc12 [Example 94, 3-(3-Methylbenzofuran-2-yl)-5-(1-piperidin-4-yl-1H-pyrazol-4-yl)pyridin-2-ylamine bishydrochloride]",1 to 20,0.1 to 1
"Nc1ncc(-c2cnn(C3CCNCC3)c2)cc1-c1oc2ccccc2c1Br [Example 95, 3-(3-Bromobenzofuran-2-yl)-5-(1-piperidin-4-yl-1H-pyrazol-4-yl)-pyridin-2-ylamine trifluoroacetate]",1 to 20,1 to 20
"Nc1ncc(-c2cnn(C3CCNCC3)c2)cc1-c1oc2ccccc2c1-c1ccccc1 [Example 96, 3-(3-Phenylbenzofuran-2-yl)-5-(1-piperidin-4-yl-1H-pyrazol-4-yl)pyridine-2-ylamine]",1 to 20,1 to 20
"Nc1ncc(-c2cnn(C3CCNCC3)c2)cc1-c1oc2ccccc2c1-c1cccc(Cl)c1F [Example 97, 3-[3-(3-Chloro-2-fluorophenyl)benzofuran-2-yl]-5-(1-piperidin-4-yl-1H-pyrazol-4-yl)pyridine-2-ylamine]",1 to 20,0.1 to 1
"Nc1ncc(-c2cnn(C3CCNCC3)c2)cc1-c1oc2ccccc2c1-c1cccc(F)c1F [Example 98, 3-[3-(2,3-Difluorophenyl)benzofuran-2-yl]-5-(1-piperidin-4-yl-1H-pyrazol-4-yl)pyridine-2-ylamine]",1 to 20,0.1 to 1
"Cn1cc(-c2cnc(N)c(-c3cc4ccccc4o3)c2)cn1 [Example 101, 3-Benzofuran-2-yl-5-(1-methyl-1H-pyrazol-4-yl)-pyridin-2-ylamine bis-hydrochloride]",1 to 20,1 to 20
"CC(C)n1cc(-c2cnc(N)c(-c3cc4ccccc4o3)c2)cn1 [Example 102, 3-Benzofuran-2-yl-5-(1-isopropyl-1H-pyrazol-4-yl)-pyridin-2-ylamine bis-hydrochloride]",1 to 20,0.1 to 1
"CN(C)C(=O)N1CCC(n2cc(-c3cnc(N)c(-c4cc5ccccc5o4)c3)cn2)CC1 [Example 103, 4-[4-(6-Amino-5-benzofuran-2-yl-pyridin-3-yl)-pyrazol-1-yl]-piperidine-1-carboxylic acid dimethylamide bis-hydrochloride]",1 to 20,0.1 to 1
"Cc1c(-c2cc(-c3cnn(C4CCNCC4)c3)cnc2N)sc2ccccc12 [Example 105, 3-(3-Methylbenzo[b]thiophen-2-yl)-5-(1-piperidin-4-yl-1H-pyrazol-4-yl)pyridin-2-ylamine bishydrochloride]",1 to 20,1 to 20
"CN1C2CCC1CC(n1cc(-c3cnc(N)c(-c4nc5ccccc5s4)c3)cn1)C2 (centres unmarked) [Example 108, 3-Benzothiazol-2-yl-5-[1-(8-methyl-8-azabicyclo [3.2.1]oct-3-yl)-1H-pyrazol-4-yl]-pyridin-2-ylamine trihydrochloride]",≤ 0.1,≤ 0.1
"CN1C2CCC1CC(n1cc(-c3cnc(N)c(-c4nc5ccccc5s4)c3)cn1)C2 (centres unmarked) [Example 109, 3-Benzothiazol-2-yl-5-[1-(8-methyl-8-azabicyclo[3.2.1]oct-3-yl)-1H-pyrazol-4-yl]-pyridin-2-ylamine]",≤ 0.1,≤ 0.1
"Nc1ncc(-c2cnn(C3CC4CCC(C3)N4)c2)cc1-c1nc2ccccc2s1 (centres unmarked) [Example 110, 5-[1-(8-Azabicyclo[3.2.1]oct-3-yl)-1H-pyrazol-4-yl]-3-benzothiazol-2-ylpyridin-2-ylamine]",0.1 to 1,0.1 to 1
"Nc1ncc(-c2cn[nH]c2)cc1-c1nc2ccccc2s1 [Example 112, 3-Benzothiazol-2-yl-5-(1H-pyrazol-4-yl)-pyridin-2-ylamine]",1 to 20,1 to 20
"Nc1ncc(-c2cnn(C3CCCCC3)c2)cc1-c1nc2ccccc2s1 [Example 113, 3-Benzothiazol-2-yl-5-(1-cyclohexyl-1H-pyrazol-4-yl)-pyridin-2-ylamine bis-hydrochloride]",1 to 20,0.1 to 1
"Nc1ncc(-c2cnn(C3CCN(CC(F)(F)F)CC3)c2)cc1-c1nc2ccccc2s1 [Example 115, 3-Benzothiazol-2-yl-5-1-[1-(2,2,2-trifluoroethyl)-piperidin-4-yl]-1H-pyrazol-4-yl-pyridin-2-ylamine dihydrochloride]",1 to 20,1 to 20

# Now from value to compound:
IC50 [1] [µM],IC50 [2] [µM],Compound
1 to 20,1 to 20,"CCOC(=O)COc1ccc(-c2cnc(N)c(-c3cc4c(Cl)ccc(F)c4cn3)c2)cc1 [Example 83, Ethyl-[4-(6-amino-5-(5-chloro-8-fluoroisoquinolin-3-yl)pyridin-3-yl)phenoxy]acetate]"
0.1 to 1,0.1 to 1,"COc1ccc(Cl)c2cc(-c3cc(-c4ccc(C(=O)O)cc4)cnc3N)ncc12 [Example 90, 4-[6-Amino-5-(5-chloro-8-methoxyisoquinolin-3-yl)-pyridin-3-yl]benzoic acid]"
0.1 to 1,0.1 to 1,"Nc1ncc(-c2cnn(C3CCNCC3)c2)cc1-c1oc2ccccc2c1Cl [Example 93, 3-(3-Chlorobenzofuran-2-yl)-5-(1-piperidin-4-yl-1H-pyrazol-4-yl)-pyridin-2-ylamine dihydrochloride]"
0.1 to 1,0.1 to 1,"Nc1ncc(-c2cnn([C@@H]3CCNC3)c2)cc1-c1cc2ccccc2o1 [Example 99, 3-Benzofuran-2-yl-5-((R)-1-pyrrolidin-3-yl-1H-pyrazol-4-yl)-pyridin-2-ylamine dihydrochloride]"
0.1 to 1,0.1 to 1,"Nc1ncc(-c2cnn([C@H]3CCNC3)c2)cc1-c1cc2ccccc2o1 [Example 100, 3-Benzofuran-2-yl-5-((S)-1-pyrrolidin-3-yl-1H-pyrazol-4-yl)-pyridin-2-ylamine dihydrochloride]"
0.1 to 1,≤ 0.1,"Nc1ncc(-c2cnn(C3CCNCC3)c2)cc1-c1cc2ccccc2s1 [Example 104, 3-Benzo[b]thiophen-2-yl-5-(1-piperidin-4-yl-1H-pyrazol-4-yl)-pyridin-2-ylamine bishydrochloride]"
0.1 to 1,≤ 0.1,"Nc1ncc(-c2cnn(C3CCNCC3)c2)cc1-c1nc2ccccc2o1 [Example 106, 3-Benzoxazol-2-yl-5-(1-piperidin-4-yl-1H-pyrazol-4-yl)-pyridin-2-ylamine dihydrochloride]"
≤ 0.1,≤ 0.1,"Nc1ncc(-c2cnn(C3CCNCC3)c2)cc1-c1nc2ccccc2s1 [Example 107, 3-Benzothiazol-2-yl-5-(1-piperidin-4-yl-1H-pyrazol-4-yl)-pyridin-2-ylamine dihydrochloride]"
0.1 to 1,0.1 to 1,"Nc1ncc(-c2cnn(C3CCOCC3)c2)cc1-c1nc2ccccc2s1 [Example 111, 3-Benzothiazol-2-yl-5-[1-(tetrahydropyran-4-yl)-1H-pyrazol-4-yl]-pyridin-2-ylamine]"
0.1 to 1,0.1 to 1,"COCCN1CCC(n2cc(-c3cnc(N)c(-c4nc5ccccc5s4)c3)cn2)CC1 [Example 114, 3-Benzothiazol-2-yl-5-1-[1-(2-methoxyethyl)-piperidin-4-yl]-1H-pyrazol-4-yl-pyridin-2-ylamine]"
0.1 to 1,0.1 to 1,"NC(=O)N1CCC(n2cc(-c3cnc(N)c(-c4nc5ccccc5s4)c3)cn2)CC1 [Example 116, 4-[4-(6-Amino-5-benzothiazol-2-yl-pyridin-3-yl)-pyrazol-1-yl]-piperidine-1-carboxamide bis-hydrochloride]"
